# Values quoted from earlier work in patent US20130129668A1, “Diagnosis and treatment of arthritis using epigenetics” (The Regents of the University of California, priority 2011, published 2013).
# What was measured:
# FLS = FLS cultured in the presence of 5-azaC for 3 months
smiles,measurement,setting,value
"Nc1ncn([C@H]2C[C@H](O)[C@@H](CO)O2)c(=O)n1 [5-azaC, 5-aza-2′-deoxycytidine]",autoreactivity,T cells,enhances autoreactivity
same,"expression of T cell genes (IFNα, IL-4, CD70, LFA-1)",T cells,affects expression of many T cell genes
same,expression of genes implicated in RA,FLS,increased expression of several genes
